Results published in patent US7078195B2, “Antibiotics AA-896” (Wyeth Holdings Corporation, priority 2001, dated 2006).
Converted amounts (≈) assume the structure as drawn.

What was measured:
[1] = tested on: CNS GC 4537; assay: Broth dilution MIC; format: cell-based; conditions: Mueller-Hinton broth, 18 hours at 35° C.; for MIC: read-out: Antimicrobial Activity (MIC)
Description: (§1) The in vitro antibacterial activity of AA-896-A1, AA-896-A2, AA-896-A3, AA-896-A4, AA-896-A5, AA-896-B1, AA-896-B2, AA-896-B3, AA-896-B4, AA-896-B5, AA-896-B6, AA-896-B7, AA-896-C1, AA-896-C2, AA-896-C3, AA-896-C4, AA-896-D1, AA896-D2 and AA-896-D3 is determined against a spectrum of Gram-positive and Gram-negative bacteria by a standard broth dilution method. Serial dilution of the compounds are made in Mueller-Hinton broth and inoculated with a bacterial suspension. The lowest concentration of compound that inhibited the growth of a bacterial strain after 18 hours of incubation at 35° C. is reported as the minimal inhibitory concentration (MIC) for that strain.

[2] = tested on: CNS GC 4538; assay: Broth dilution MIC; format: cell-based; conditions: Mueller-Hinton broth, 18 hours at 35° C.; for MIC: read-out: Antimicrobial Activity (MIC)
Description: as §1

[3] = tested on: CNS GC 4547; assay: Broth dilution MIC; format: cell-based; conditions: Mueller-Hinton broth, 18 hours at 35° C.; for MIC: read-out: Antimicrobial Activity (MIC)
Description: as §1

[4] = tested on: E. cloacae GC 3783; assay: Broth dilution MIC; format: cell-based; conditions: 18 hours at 35° C.; for Antimicrobial Activity (MIC): Mueller-Hinton broth; for MIC: Enterobacter cloacae, GC3783, Mueller-Hinton broth, read-out: Antimicrobial Activity (MIC)
Description: as §1

[5] = tested on: E. coli GC 2203; assay: Broth dilution MIC; format: cell-based; conditions: 18 hours at 35° C.; for Antimicrobial Activity (MIC): Mueller-Hinton broth; for MIC: Escherichia coli, GC2203, Mueller-Hinton broth, read-out: Antimicrobial Activity (MIC)
Description: as §1

[6] = tested on: E. coli GC 3226; assay: Broth dilution MIC; format: cell-based; conditions: 18 hours at 35° C.; for Antimicrobial Activity (MIC): Mueller-Hinton broth; for MIC: Escherichia coli, GC3226, Mueller-Hinton broth, read-out: Antimicrobial Activity (MIC)
Description: as §1

[7] = tested on: E. coli GC 4559; assay: Broth dilution MIC; format: cell-based; conditions: 18 hours at 35° C.; for Antimicrobial Activity (MIC): Mueller-Hinton broth; for MIC: Escherichia coli, GC4559, Mueller-Hinton broth, read-out: Antimicrobial Activity (MIC)
Description: as §1

[8] = tested on: E. coli GC 4560; assay: Broth dilution MIC; format: cell-based; conditions: 18 hours at 35° C.; for Antimicrobial Activity (MIC): Mueller-Hinton broth; for MIC: Escherichia coli, GC4560, Mueller-Hinton broth, read-out: Antimicrobial Activity (MIC)
Description: as §1

[9] = tested on: E. faecalis GC 2242; assay: Broth dilution MIC; format: cell-based; conditions: 18 hours at 35° C.; for MIC: Enterococcus faecalis, GC2242, Mueller-Hinton broth, read-out: Antimicrobial Activity (MIC)
Description: as §1

[10] = tested on: E. faecalis GC 4555; assay: Broth dilution MIC; format: cell-based; conditions: 18 hours at 35° C.; for Antimicrobial Activity (MIC): Mueller-Hinton broth; for MIC: Enterococcus faecalis, GC4555, Mueller-Hinton broth, read-out: Antimicrobial Activity (MIC)
Description: as §1

[11] = tested on: E. faecalis GC 842; assay: Broth dilution MIC; format: cell-based; conditions: 18 hours at 35° C.; for Antimicrobial Activity (MIC): Mueller-Hinton broth; for MIC: Enterococcus faecalis, GC842, Mueller-Hinton broth, read-out: Antimicrobial Activity (MIC)
Description: as §1

[12] = tested on: K. pneumoniae GC 4534; assay: Broth dilution MIC; format: cell-based; conditions: 18 hours at 35° C.; for Antimicrobial Activity (MIC): Mueller-Hinton broth; for MIC: Klebsiella pneumoniae, GC4534, Mueller-Hinton broth, read-out: Antimicrobial Activity (MIC)
Description: as §1

[13] = tested on: M. morganii GC 4531; assay: Broth dilution MIC; format: cell-based; conditions: 18 hours at 35° C.; for Antimicrobial Activity (MIC): Mueller-Hinton broth; for MIC: Morganella morganii, GC4531, Mueller-Hinton broth, read-out: Antimicrobial Activity (MIC)
Description: as §1

[14] = tested on: P. aeruginosa GC 2214; assay: Broth dilution MIC; format: cell-based; conditions: 18 hours at 35° C.; for Antimicrobial Activity (MIC): Mueller-Hinton broth; for MIC: Pseudomonas aeruginosa, GC2214, Mueller-Hinton broth, read-out: Antimicrobial Activity (MIC)
Description: as §1

[15] = tested on: P. aeruginosa GC 4532; assay: Broth dilution MIC; format: cell-based; conditions: 18 hours at 35° C.; for Antimicrobial Activity (MIC): Mueller-Hinton broth; for MIC: Pseudomonas aeruginosa, GC4532, Mueller-Hinton broth, read-out: Antimicrobial Activity (MIC)
Description: as §1

[16] = tested on: P. rettgeri GC 4530; assay: Broth dilution MIC; format: cell-based; conditions: 18 hours at 35° C.; for Antimicrobial Activity (MIC): Mueller-Hinton broth; for MIC: Providencia rettgeri, GC4530, Mueller-Hinton broth, read-out: Antimicrobial Activity (MIC)
Description: as §1

[17] = tested on: S. aureus GC 1131; assay: Broth dilution MIC; format: cell-based; conditions: 18 hours at 35° C.; for Antimicrobial Activity (MIC): Mueller-Hinton broth; for MIC: Staphylococcus aureus, GC1131, Mueller-Hinton broth, read-out: Antimicrobial Activity (MIC)
Description: as §1

[18] = tested on: S. aureus GC 2216; assay: Broth dilution MIC; format: cell-based; conditions: 18 hours at 35° C.; for Antimicrobial Activity (MIC): Mueller-Hinton broth; for MIC: Staphylococcus aureus, GC2216, Mueller-Hinton broth, read-out: Antimicrobial Activity (MIC)
Description: as §1

[19] = tested on: S. aureus GC 4536; assay: Broth dilution MIC; format: cell-based; conditions: 18 hours at 35° C.; for Antimicrobial Activity (MIC): Mueller-Hinton broth; for MIC: Staphylococcus aureus, GC4536, Mueller-Hinton broth, read-out: Antimicrobial Activity (MIC)
Description: as §1

[20] = tested on: S. marcescens GC 4077; assay: Broth dilution MIC; format: cell-based; conditions: 18 hours at 35° C.; for Antimicrobial Activity (MIC): Mueller-Hinton broth; for MIC: Serratia marcescens, GC4077, Mueller-Hinton broth, read-out: Antimicrobial Activity (MIC)
Description: as §1

[21] = tested on: E. faecalis GC 242; assay: Broth dilution MIC; format: cell-based; conditions: Mueller-Hinton broth, 18 hours at 35° C.
Description: as §1

[22] = tested on: Staphylococcus aureus Smith; assay: Acute lethal infection in mice; format: in vivo
Description: (§2) The antibacterial efficacy of AA-896-A1 in vivo against acute lethal infection in mice is established by infecting mice with Staphylococcus aureus Smith or Streptococcus pneumoniae. The mice are treated with AA-896-A1.

[23] = tested on: Streptococcus pneumoniae; assay: Acute lethal infection in mice; format: in vivo
Description: as §2

## COC1C(OC(C(NCCCNC(=O)C(CC(C)C)NC(=O)C(NC(=O)NC(C(=O)O)C(C)C)C2CCNC(=N)N2)C(=O)O)C2OC(n3ccc(=O)[nH]c3=O)C(O)C2O)OC(CN)C1O [AA-896-D1, 5-O-[5-Amino-5-deoxy-2-O-methyl-β-D-ribofuranosyl]-6-[[3-[2-[2-[[(1-carboxy-2-methyl-propyl)carbamoyl]amino]-2-(hexahydro-2-iminopyrimidin-4-yl)acetamido]-4-methyl-pentanamido]propyl]amino]-1,6-dideoxy-1-(3,4-dihydro-2,4-dioxopyrimidin-1(2H)-yl)-β-D-heptofuranuronic acid]
[1]
  Antimicrobial Activity (MIC): >32 µg/mL
[2]
  Antimicrobial Activity (MIC): >32 µg/mL
[3]
  Antimicrobial Activity (MIC): >32 µg/mL
[4]
  Antimicrobial Activity (MIC): 32 µg/mL
[5]
  Antimicrobial Activity (MIC): >32 µg/mL
[6]
  Antimicrobial Activity (MIC): 32 µg/mL
[7]
  Antimicrobial Activity (MIC): >32 µg/mL
[8]
  Antimicrobial Activity (MIC): 1 µg/mL
[9]; Mueller-Hinton broth
  Antimicrobial Activity (MIC): >32 µg/mL
[10]
  Antimicrobial Activity (MIC): >32 µg/mL
[11]
  Antimicrobial Activity (MIC): >32 µg/mL
[12]
  Antimicrobial Activity (MIC): >32 µg/mL
[13]
  Antimicrobial Activity (MIC): >32 µg/mL
[14]
  Antimicrobial Activity (MIC): 32 µg/mL
[15]
  Antimicrobial Activity (MIC): 32 µg/mL
[16]
  Antimicrobial Activity (MIC): >32 µg/mL
[17]
  Antimicrobial Activity (MIC): >32 µg/mL
[18]
  Antimicrobial Activity (MIC): >32 µg/mL
[19]
  Antimicrobial Activity (MIC): >32 µg/mL
[20]
  Antimicrobial Activity (MIC): >32 µg/mL

## CC(C)C(NC(=O)NC(C(=O)NC(C(=O)NCCCNC(C(=O)O)C(O)C1OC(n2ccc(=O)[nH]c2=O)C(O)C1O)C(O)C(C)C)C1CCNC(=N)N1)C(=O)O [AA-896-C4, 6-[[3-[2-[2-[[(1-Carboxy-2-methylpropyl)carbamoyl]amino]-2-(hexahydro-2-iminopyrimidin-4-yl)acetamido]-3-hydroxy-4-methylpentanamido]propyl]amino]-1,6-dideoxy-1-(3,4-dihydro-2,4-dioxopyrimidin-1(2H)-yl)-β-D-heptofuranuronic acid]
[1]
  MIC: > 32 µg/mL
[2]
  MIC: > 32 µg/mL
[3]
  MIC: > 32 µg/mL
[4]
  MIC: > 32 µg/mL
[5]
  MIC: > 32 µg/mL
[6]
  MIC: > 32 µg/mL
[7]
  MIC: > 32 µg/mL
[8]
  MIC: 4 µg/mL (≈ 4.99 µM)
[9]
  MIC: > 32 µg/mL
[10]
  MIC: > 32 µg/mL
[11]
  MIC: > 32 µg/mL
[12]
  MIC: > 32 µg/mL
[13]
  MIC: > 32 µg/mL
[14]
  MIC: 32 µg/mL (≈ 40 µM)
[15]
  MIC: 32 µg/mL (≈ 40 µM)
[16]
  MIC: > 32 µg/mL
[17]
  MIC: > 32 µg/mL
[18]
  MIC: > 32 µg/mL
[19]
  MIC: > 32 µg/mL
[20]
  MIC: > 32 µg/mL

## CC(C)C(NC(=O)NC(C(=O)NC(C(=O)NCCCNC(C(=O)O)C(O)C1OC(n2ccc(=O)[nH]c2=O)C(O)C1O)C(OC(=O)CCCCCCCCCCCCN(O)C(=N)N)C(C)C)C1CCNC(=N)N1)C(=O)O [AA-896-A5, 6-[[3-[3-[[13-(Carbamimidoylhydroxyamino)tridecanoyl]oxy]-2-[2-[[(1-carboxy-2-methyl-propyl)carbamoyl]amino]-2-(hexahydro-2-iminopyrimidin-4-yl)acetamido]-4-methyl-pentanamido]propyl]amino]-1,6-dideoxy-1-(3,4-dihydro-2,4-dioxopyrimidin-1(2H)-yl)-β-D-heptofuranuronic acid]
[1]
  MIC: 16 µg/mL (≈ 15 µM)
[2]
  MIC: 4 µg/mL (≈ 3.74 µM)
[3]
  MIC: 16 µg/mL (≈ 15 µM)
[4]
  MIC: 1 µg/mL (≈ 0.934 µM)
[5]
  MIC: 16 µg/mL (≈ 15 µM)
[6]
  MIC: 16 µg/mL (≈ 15 µM)
[7]
  MIC: 4 µg/mL (≈ 3.74 µM)
[8]
  MIC: ≤ 0.06 µg/mL
[9]
  MIC: > 64 µg/mL
[10]
  MIC: 32 µg/mL (≈ 29.9 µM)
[11]
  MIC: > 64 µg/mL
[12]
  MIC: 8 µg/mL (≈ 7.48 µM)
[13]
  MIC: > 64 µg/mL
[14]
  MIC: 32 µg/mL (≈ 29.9 µM)
[15]
  MIC: 32 µg/mL (≈ 29.9 µM)
[16]
  MIC: > 64 µg/mL
[17]
  MIC: 16 µg/mL (≈ 15 µM)
[18]
  MIC: 16 µg/mL (≈ 15 µM)
[19]
  MIC: 8 µg/mL (≈ 7.48 µM)
[20]
  MIC: > 64 µg/mL

## 5-O-[5-Amino-5-deoxy-2-O-methyl-β-D-ribofuranosyl]-6-[[3-[3-[[13-(carbamimidoylhydroxy-amino)tridecanoyl]oxy]-2-[2-[[(1-carboxy-2-methylpropyl)carbamoyl]amino]-2-(hexahydro-2-iminopyrimidin-4-yl)acetamido]-4-methylpentanamido]propyl]amino]-1,6-dideoxy-1-(3,4-dihydro-2,4-dioxopyrimidin-1(2H)-yl)-β-D-heptofuranuronic acid [AA-896-A1]
[1]
  Antimicrobial Activity (MIC): 2 µg/mL
[2]
  Antimicrobial Activity (MIC): 1 µg/mL
[3]
  Antimicrobial Activity (MIC): 4 µg/mL
[4]
  Antimicrobial Activity (MIC): 0.5 µg/mL
[5]
  Antimicrobial Activity (MIC): 16 µg/mL
[6]
  Antimicrobial Activity (MIC): 8 µg/mL
[7]
  Antimicrobial Activity (MIC): 32 µg/mL
[8]
  Antimicrobial Activity (MIC): <=0.03 μg/ml
[21]
  Antimicrobial Activity (MIC): 32 µg/mL
[10]
  Antimicrobial Activity (MIC): 16 µg/mL
[11]
  Antimicrobial Activity (MIC): 32 µg/mL
[12]
  Antimicrobial Activity (MIC): >32 µg/mL
[13]
  Antimicrobial Activity (MIC): >32 µg/mL
[14]
  Antimicrobial Activity (MIC): 16 µg/mL
[15]
  Antimicrobial Activity (MIC): 32 µg/mL
[16]
  Antimicrobial Activity (MIC): >32 µg/mL
[17]
  Antimicrobial Activity (MIC): 4 µg/mL
[18]
  Antimicrobial Activity (MIC): 8 µg/mL
[19]
  Antimicrobial Activity (MIC): 4 µg/mL
[20]
  Antimicrobial Activity (MIC): >32 µg/mL
[22]
  ED50 range (95% confidence limit): 0.83 to 1.46 mg/kg
[23]
  ED50 range (95% confidence limit): 8.0 to 16.0 mg/kg
